Non-standard residues stand in square brackets, D forms with d. Residues, ends and D or L forms follow the SMILES beside them. Groups on a side chain read outwards from the residue. *: point of attachment. DM1Mal(CH2)2CO = COc1cc2cc(c1Cl)N(C)C(=O)C[C@H](OC(=O)[C@H](C)N(C)C(=O)CCSC1CC(=O)N(CCC(=O)*)C1=O)[C@]1(C)O[C@H]1[C@H](C)[C@@H]1C[C@@](O)(NC(=O)O1)[C@H](OC)/C=C/C=C(\C)C2; X2 = CC(=O)N[C@@H](CSC1CC(=O)N(CCC(=O)*)C1=O)C(=O)O; Dolaproine = CO[C@@H]([C@@H]1CCCN1)[C@@H](C)C(=O)O; Dil = CC[C@H](C)[C@H](NC)[C@@H](CC(=O)O)OC; NMe2Val = CC(C)[C@@H](C(=O)*)N(C)C; PEG5 = NCCOCCOCCOCCOCCOCCC(=O)O; Cit = NC(=O)NCCC[C@H](N)C(=O)O; PEG4 = NCCOCCOCCOCCOCCC(=O)O
Molecular target: T1, Cathepsin B (Homo sapiens, UniProt P07858)
T1 construct: purchased R&D Systems, Bio-Techne AG 953-CY-010
Experiment: Cat B-induced cleavage, in vitro enzymatic cleavage assay with UHPLC-MS/MS
Type: biochemical
Details: for half-life at 10 μM: human, recombinant human Cathepsin B (activated), 10 μM test compound, Cathepsin B 2 μg/mL, MES buffer pH 5.0, 37° C., read-out: T1/2 Compound; for Ratio (T1/2 Compound/T1/2 Reference): versus Cys-MC-Val-Cit-PABC-MMAF
Description: Cat B-induced cleavage of the antibody-drug conjugates can be evaluated according to the in vitro enzymatic cleavage assay using recombinant human Cathepsin B (commercially acquired from R&D Systems, Bio-Techne AG, cat #. 953-CY-010 in the form of a precursor) and UHPLC-MS/MS analysis.
Briefly, the enzyme is reconstituted in 25 mM 2-(N-morpholino) ethanesulfonic acid (MES) buffer adjusted at pH 5.0 with a 1M NaOH solution and then activated with a […] solution of Dithiothreitol (DDT) at room temperature for at least 15 min. The in vitro enzymatic assay is conducted at 37° C. with the test compound at a concentration of 10 μM (when the test compound is a linker according to the present invention wherein the maleimide group has been quenched in the presence of acetyl-cysteine (Ac-Cys-OH)) or 2.5 μM (when the test compound is an antibody-drug conjugate) in the presence of activated recombinant human Cathepsin B enzyme at 2 μg/mL in a 25 mM MES buffer pH 5.0. The enzymatic cleavage reaction is stopped for each defined time point by mixing a 1/10 ratio volume of acetonitrile+0.1% formic acid (FA) containing an internal standard (warfarine at 0.5 μM). Analysis is conducted using a Waters Acquity UPLC System coupled to a Waters Xevo TQ triple quad mass spectrometer. UHPLC is conducted with a HSS T3 1.8 μm 50×2.1 mm column (Waters) heated at 45° C. and fitted with 2 μm insert filter pre-column (Waters), and solvent systems A1 (H2O+0.1% FA) and B1 (acetonitrile+0.1% FA) at a flow rate of 0.6 mL/min and a 5-95% gradient of B1 over 2.0 min. MS/MS is performed using electrospray ionization (ESI) interface in positive mode and specific MRM transitions for each compound.
The propensity of compounds 1-13 to be cleaved by Cathepsin B was evaluated according to an in vitro enzymatic cleavage assay using recombinant human Cathepsin B and UHPLC-MS/MS analysis as described in Section 2.3.5 above.

Row | Structure (SMILES) | half-life at 10 μM [min] | Ratio (T1/2 Compound/T1/2 Reference) | Cat B-induced drug release, times faster than reference (compared to Cys-MC-Val-Cit-PABC-MMAF) [times]
1 | COc1cc2cc(c1Cl)N(C)C(=O)C[C@H](OC(=O)[C@H](C)N(C)C(=O)CCSC1CC(=O)N(CC3CCC(C(=O)N[C@@H](CCCNC(N)=O)C(=O)N[C@@H](CCCCNC(=O)CCOCCOCCOCCOCCOCCNC(=O)CN4C(=O)CC(SC[C@H](NC(C)=O)C(=O)O)C4=O)C(=O)N[C@@H](Cc4ccc(O)cc4)C(=O)O)CC3)C1=O)[C@]1(C)O[C@H]1[C@H](C)[C@@H]1C[C@@](O)(NC(=O)O1)[C@H](OC)/C=C/C=C(\C)C2 (stereo partly drawn) [compound 12, DM1-Mcc-Cit-Lys(PEG5-Mal-Cys-Ac)-Tyr-OH] | < 1 | 0.00004 | –
2 | COc1cc2cc(c1Cl)N(C)C(=O)C[C@H](OC(=O)[C@H](C)N(C)C(=O)CCSC1CC(=O)N(CCC(=O)N[C@@H](Cc3ccccc3)C(=O)N[C@@H](CCCNC(N)=O)C(=O)N[C@@H](Cc3ccccc3)C(=O)N[C@@H](CCCCNC(=O)CCOCCOCCOCCOCCNC(=O)CCN3C(=O)CC(SC[C@H](NC(C)=O)C(=O)O)C3=O)C(=O)O)C1=O)[C@]1(C)O[C@H]1[C@H](C)[C@@H]1C[C@@](O)(NC(=O)O1)[C@H](OC)/C=C/C=C(\C)C2 (stereo partly drawn) [compound 7, DM1-Mal-Phe-Cit-Phe-Lys(PEG4-Mal-Cys-Ac)-OH] ({DM1Mal(CH2)2CO}-F[Cit]FK([PEG4-X2])-OH) | – | 0.09 | –
3 | CC[C@H](C)[C@@H]([C@@H](CC(=O)N1CCC[C@H]1[C@H](OC)[C@@H](C)C(=O)N[C@@H](Cc1ccccc1)C(=O)N[C@@H](CCCNC(=N)N)C(=O)N[C@@H](CCCCNC(=O)CCOCCOCCOCCOCCOCCNC(=O)CCN1C(=O)CC(SC[C@H](NC(C)=O)C(=O)O)C1=O)C(=O)N[C@@H](Cc1ccccc1)C(=O)O)OC)N(C)C(=O)[C@@H](NC(=O)[C@H](C(C)C)N(C)C)C(C)C (stereo partly drawn) [compound 1, AF-Arg-Lys(PEG4-Mal-Cys-Ac)-Phe-OH] (NMe2Val-V[Dil][Dolaproine]FRK([PEG5-X2])F-OH) | – | 0.12 | –
4 | CC[C@H](C)[C@@H]([C@@H](CC(=O)N1CCC[C@H]1[C@H](OC)[C@@H](C)C(=O)N[C@@H](Cc1ccccc1)C(=O)N[C@@H](CCCNC(=N)N)C(=O)N[C@@H](Cc1ccccc1)C(=O)N[C@@H](CCCCNC(=O)CCOCCOCCOCCOCCNC(=O)CCN1C(=O)CC(SC[C@H](NC(C)=O)C(=O)O)C1=O)C(=O)O)OC)N(C)C(=O)[C@@H](NC(=O)[C@H](C(C)C)N(C)C)C(C)C (stereo partly drawn) [compound 3, AF-Arg-Phe-Lys(PEG4-Mal-Cys-Ac)-OH] (NMe2Val-V[Dil][Dolaproine]FRFK([PEG4-X2])-OH) | – | 0.11 | –
5 | COc1cc2cc(c1Cl)N(C)C(=O)C[C@H](OC(=O)[C@H](C)N(C)C(=O)CCSC1CC(=O)N(CC3CCC(C(=O)N[C@@H](Cc4ccccc4)C(=O)N[C@@H](CCCNC(N)=O)C(=O)N[C@@H](CCCCNC(=O)CCOCCOCCOCCOCCOCCNC(=O)CN4C(=O)CC(SC[C@H](NC(C)=O)C(=O)O)C4=O)C(=O)N[C@@H](Cc4ccc(O)cc4)C(=O)O)CC3)C1=O)[C@]1(C)O[C@H]1[C@H](C)[C@@H]1C[C@@](O)(NC(=O)O1)[C@H](OC)/C=C/C=C(\C)C2 (stereo partly drawn) [compound 11, DM1-Mcc-Phe-Cit-Lys(PEG5-Mal-Cys-Ac)-Tyr-OH] | < 1 | 0.005 | –
6 | COc1cc2cc(c1Cl)N(C)C(=O)C[C@H](OC(=O)[C@H](C)N(C)C(=O)CCSC1CC(=O)N(CCC(=O)N[C@@H](Cc3ccccc3)C(=O)N[C@@H](CCCCN)C(=O)N[C@@H](CCCCNC(=O)CCOCCOCCOCCOCCNC(=O)CCN3C(=O)CC(SC[C@H](NC(C)=O)C(=O)O)C3=O)C(=O)N[C@@H](Cc3ccccc3)C(=O)O)C1=O)[C@]1(C)O[C@H]1[C@H](C)[C@@H]1C[C@@](O)(NC(=O)O1)[C@H](OC)/C=C/C=C(\C)C2 (stereo partly drawn) [compound 5, DM1-Mal-Phe-Lys-Lys(PEG4-Mal-Cys-Ac)-Phe-OH] ({DM1Mal(CH2)2CO}-FKK([PEG4-X2])F-OH) | – | 0.05 | 20
7 | COc1cc2cc(c1Cl)N(C)C(=O)C[C@H](OC(=O)[C@H](C)N(C)C(=O)CCSC1CC(=O)N(CCC(=O)N[C@@H](Cc3ccccc3)C(=O)N[C@@H](CCCNC(N)=O)C(=O)N[C@@H](CCCCNC(=O)CCOCCOCCOCCOCCNC(=O)CCN3C(=O)CC(SC[C@H](NC(C)=O)C(=O)O)C3=O)C(=O)N[C@@H](Cc3ccccc3)C(=O)O)C1=O)[C@]1(C)O[C@H]1[C@H](C)[C@@H]1C[C@@](O)(NC(=O)O1)[C@H](OC)/C=C/C=C(\C)C2 (stereo partly drawn) [compound 6, DM1-Mal-Phe-Cit-Lys(PEG4-Mal-Cys-Ac)-Phe-OH] ({DM1Mal(CH2)2CO}-F[Cit]K([PEG4-X2])F-OH) | – | 0.02 | –
8 | CC[C@H](C)[C@@H]([C@@H](CC(=O)N1CCC[C@H]1[C@H](OC)[C@@H](C)C(=O)N[C@@H](Cc1ccccc1)C(=O)N[C@@H](CCCNC(N)=O)C(=O)N[C@@H](CCCCNC(=O)CCOCCOCCOCCOCCNC(=O)CCN1C(=O)CC(SC[C@H](NC(C)=O)C(=O)O)C1=O)C(=O)N[C@@H](Cc1ccccc1)C(=O)O)OC)N(C)C(=O)[C@@H](NC(=O)[C@H](C(C)C)N(C)C)C(C)C (stereo partly drawn) [compound 8, AF-Cit-Lys(PEG4-Mal-Cys-Ac)-Phe-OH] (NMe2Val-V[Dil][Dolaproine]F[Cit]K([PEG4-X2])F-OH) | – | 0.09 | –

Source: patent publication US20260191982A1, “ANTI-BASAL CELL ADHESION MOLECULE ANTIBODY-DRUG CONJUGATE” (Genome & Company, Inc., priority 2022, published 2026)
